Like-named read-outs stand apart in the source and are kept apart here.
Legend:
[1] = system: human red blood cells; test: hemolysis assay; type: cell-based; conditions: 30 min 37 °C; for hemolysis activity, cytotoxicity to human red blood cells: 0.5–150 µg/mL, compared with 0.01% Tween 20
Protocol: Blood collected at CHU Nancy was washed three times with PBS, and 10^7 cells/mL were incubated for 30 min at 37 °C with the newly synthesized compounds. The derivatives were previously diluted to the range from 0.5 to 75/150 μg/mL with PBS. As a positive control, cells were resuspended with 0.01% polysorbate 20 (Tween 20). Tween 20 has often been used as a reference compound for cell lysis. Upon incubation, the samples were centrifuged for 5 min at 800× g, and the supernatant was collected for optical density reading at 540 nm.

[2] = biological target: E. coli γ (Escherichia coli, UniProt P0A9W9); type: biochemical; conditions: stopped-flow CO2 hydrase assay, pH 8.4, mean from 3 assays
Sequence of E. coli γ (P0A9W9 whole entry, canonical isoform): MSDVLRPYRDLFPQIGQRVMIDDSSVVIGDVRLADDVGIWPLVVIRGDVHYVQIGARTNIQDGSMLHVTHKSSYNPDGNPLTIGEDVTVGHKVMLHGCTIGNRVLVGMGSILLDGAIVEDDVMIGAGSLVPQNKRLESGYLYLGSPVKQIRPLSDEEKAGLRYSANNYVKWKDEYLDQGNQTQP
Protocol: (§1) The CA isoforms belong to different classes of CA enzymes characterized by different kinetic and structural features to assess isoform selectivity.
(§2) An Applied Photophysics stopped-flow instrument was used to assay CA-catalyzed CO2 hydration activity. […] The uncatalyzed rates were determined in the same manner and subtracted from the total observed rates. Stock solutions of the inhibitor (0.1 mM) were prepared in distilled–deionized water, and dilutions up to 0.01 nM were done thereafter with the assay buffer. Inhibitor and enzyme solutions were preincubated together for 15 min at room temperature prior to the assay to allow for the formation of the E–I complex. The inhibition constants were obtained by non-linear least-squares methods using PRISM 3 and the Cheng–Prusoff equation as reported earlier and represent the mean from at least three different determinations. All CA isoforms were recombinant proteins obtained in house, as reported earlier.

[3] = biological target: T1, PsCA3 (Pseudomonas aeruginosa, UniProt Q9HVB9); test: biochemical; conditions: stopped-flow CO2 hydrase assay, mean from 3 assays
T1 construct: made in house
T1 sequence (Q9HVB9 1-215): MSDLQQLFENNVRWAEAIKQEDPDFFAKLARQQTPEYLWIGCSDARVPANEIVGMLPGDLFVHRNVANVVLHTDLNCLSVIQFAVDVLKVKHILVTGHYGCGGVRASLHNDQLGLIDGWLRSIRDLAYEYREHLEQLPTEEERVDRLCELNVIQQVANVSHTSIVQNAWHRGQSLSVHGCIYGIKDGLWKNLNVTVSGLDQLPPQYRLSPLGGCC
Protocol: as §1, §2

[4] = biological target: PsCA1 (Pseudomonas aeruginosa, UniProt Q9I730); test: biochemical; conditions: stopped-flow CO2 hydrase assay, mean from 3 assays
Sequence of PsCA1 (Q9I730 entry or part of it): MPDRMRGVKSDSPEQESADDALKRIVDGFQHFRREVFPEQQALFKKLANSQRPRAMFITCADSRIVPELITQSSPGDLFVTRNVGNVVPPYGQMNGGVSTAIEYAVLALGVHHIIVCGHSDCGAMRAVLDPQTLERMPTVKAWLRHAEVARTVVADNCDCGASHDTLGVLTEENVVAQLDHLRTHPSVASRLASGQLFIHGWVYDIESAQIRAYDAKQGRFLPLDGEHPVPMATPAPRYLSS
Protocol: as §1, §2

[5] = biological target: T2, hCA I (Homo sapiens, UniProt P00915); test: stopped-flow CO2 hydrase assay, hCA I; type: biochemical; conditions: for Ki: stopped-flow CO2 hydrase assay, pH 7.4, mean from 3 assays
T2 construct: made in house
T2 sequence (P00915 whole entry): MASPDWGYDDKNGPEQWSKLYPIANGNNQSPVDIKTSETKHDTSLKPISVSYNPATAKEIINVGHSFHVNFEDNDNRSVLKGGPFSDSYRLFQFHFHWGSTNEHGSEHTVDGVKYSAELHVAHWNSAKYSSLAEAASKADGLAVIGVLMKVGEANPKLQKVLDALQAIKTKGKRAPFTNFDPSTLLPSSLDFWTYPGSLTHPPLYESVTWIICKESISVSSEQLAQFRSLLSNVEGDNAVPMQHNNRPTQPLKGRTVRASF
Protocol: as §1, §2

[6] = system: MRC-5 cells; test: cytotoxicity, MTT assay; type: cell-based, human; conditions: for IC50: MRC5, cytotoxicity, human lung fibroblasts, 24 h, MTT
Protocol: The cytotoxicity of the products was tested on MRC-5 cells (lung fibroblasts, ATCC CCL-171) with a seeding concentration of 10,000 cells/well. The products were diluted with a 2% FSC MEM medium (Sigma, M4655, Missouri, MO, USA) to concentrations ranging from 1 to 256 μg/mL and incubated with 80% confluent cells for 24 h. The following day, a 3-[4,5-dimethylthiazol-2-yl]-2,5-diphenyl tetrazolium bromide (MTT) assay was performed, and the optical density of the samples was measured at 540 nm.

[7] = system: E. faecalis; test: MIC and MBC test (NF EN ISO 20776-1), E. faecalis; type: cell-based, Enterococcus faecalis; conditions: for MIC: Enterococcus faecalis; for MBC E. faecalis: bacteriostatic or bactericidal effect, tested up to 8 × MIC
Protocol: (§3) Derivatives 2a–f were dissolved in DMSO and further diluted with distilled water to the required final concentration. The microorganisms (E. faecalis, S. aureus, and S. epidermidis reported in Table 4) were cultured overnight at 35 °C in Mueller Hinton Broth 2, Cation-Adjusted (BD, BD 212322, New York, NY, USA) and adjusted to 0.5 McFarland, according to standardized guidelines NF EN ISO 20776-1 [23]. The minimal inhibitory concentration (MIC) test was performed according to the standardized guidelines NF EN ISO 20776-1 [23]. Once the MIC was obtained, the minimal bactericidal concentration (MBC) test was performed.

[8] = biological target: T3, hCA II (Homo sapiens, UniProt P00918); test: stopped-flow CO2 hydrase assay, hCA II; type: biochemical; conditions: pH 7.4, mean from 3 assays
T3 construct: made in house
Protocol: as §1, §2

[9] = system: S. epidermidis; test: photoactivity assay, irradiation with 652 nm laser; type: cell-based, Staphylococcus epidermidis; conditions: 652 nm laser 47 min, 30 J/cm2, 2c and 2d at 64 μg/mL, others at MIC
Protocol: Upon incubation of 1.5–2 h with the products, the samples were irradiated for 47 min with a 652 nm laser (to obtain 1.70 W, 30 J/cm^2). Upon irradiation, the cells were plated and incubated overnight at 35 °C on Mueller Hinton Agar (BD, 225250, New York, NY, USA).

[10] = system: S. aureus; test: MIC and MBC test (NF EN ISO 20776-1), S. aureus; type: cell-based, Staphylococcus aureus; conditions: for MIC S. aureus / MIC: ATCC 29213, without irradiation; for MIC: Staphylococcus aureus, ATCC29213, light or radiation study; for MBC S. aureus: bacteriostatic or bactericidal effect, tested up to 8 × MIC
Protocol: as §3

[11] = biological target: T4, E. coli β (Escherichia coli, UniProt P61517); test: stopped-flow CO2 hydrase assay, E. coli β; type: biochemical; conditions: pH 8.4, mean from 3 assays
T4 construct: made in house
T4 sequence (P61517 whole entry): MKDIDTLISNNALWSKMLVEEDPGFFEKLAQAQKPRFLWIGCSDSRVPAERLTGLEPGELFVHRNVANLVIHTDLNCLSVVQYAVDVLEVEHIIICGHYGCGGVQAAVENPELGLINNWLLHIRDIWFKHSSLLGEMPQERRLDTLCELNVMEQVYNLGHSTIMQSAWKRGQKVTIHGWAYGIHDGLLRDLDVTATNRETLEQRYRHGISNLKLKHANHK
Protocol: as §1
An Applied Photophysics stopped-flow instrument was used to assay CA-catalyzed CO2 hydration activity. Phenol red (at a concentration of 0.2 mM) was used as an indicator, working at the absorbance maximum of 557 nm, with 20 mM Hepes (pH 7.4 for α-class and pH 8.4 for β- and γ-classes) as a buffer and 20 mM Na2SO4 (to maintain constant the ionic strength), following the initial rates of the CA-catalyzed CO2 hydration reaction for a period of 10–100 s. The CO2 concentrations ranged from 1.7 to 17 mM for the determination of the kinetic parameters and inhibition constants. Enzyme concentrations ranged between 5 and 12 nM. For each inhibitor, at least six traces of the initial 5–10% of the reaction were used to determine the initial velocity. The uncatalyzed rates were determined in the same manner and subtracted from the total observed rates. Stock solutions of the inhibitor (0.1 mM) were prepared in distilled–deionized water, and dilutions up to 0.01 nM were done thereafter with the assay buffer. Inhibitor and enzyme solutions were preincubated together for 15 min at room temperature prior to the assay to allow for the formation of the E–I complex. The inhibition constants were obtained by non-linear least-squares methods using PRISM 3 and the Cheng–Prusoff equation as reported earlier and represent the mean from at least three different determinations. All CA isoforms were recombinant proteins obtained in house, as reported earlier.

[12] = system: S. epidermidis; test: MIC and MBC test (NF EN ISO 20776-1), S. epidermidis; type: cell-based, Staphylococcus epidermidis; conditions: for MIC S. epidermidis / MIC: ATCC 14990, without irradiation; for MIC: Staphylococcus epidermidis, ATCC14990, light or radiation study
Protocol: as §3

[13] = light or radiation study, clinical isolate, without irradiation, read-out: MIC E. faecalis
[14] = clinical isolate, without irradiation
[15] = bacteriostatic or bactericidal effect, tested up to 8 × MIC
[16] = span over the four compounds and both strains, read-out: MIC against the E. faecalis and S. aureus strains

SMILES | hemolysis activity, cytotoxicity to human red blood cells [1] | Ki [2] [nM] | Ki [3] [nM] | Ki [4] [nM] | Ki [5] [nM] | IC50 [6] [µg/mL] | MIC [7, 13] [µg/mL] | MBC E. faecalis [7] | MIC E. faecalis [7, 14] | Ki [8] [nM] | Growth Reduction [9] [log reduction] | MIC S. aureus [10] | MIC [10] [µg/mL] | MBC S. aureus [10] | Ki [11] [nM] | MIC S. epidermidis [12] | MIC [12] [µg/mL] | MBC S. epidermidis ([12]; Table 3) | MBC S. epidermidis [12, 15] | MIC [7, 16] [µg/mL] | other results
CC1(C)C(/C=C/C2=C(NCCc3ccc(S(N)(=O)=O)cc3)C(=C/C=C3\N(CCCCS(=O)(=O)O)c4ccc5ccccc5c4C3(C)C)/CCC2)=[N+](CCCCS(=O)(=O)[O-])c2ccc3ccccc3c21 [Compound 2c] | significant cytotoxicity | 117 | 76.8 | 64.8 | 529 | > 256 | > 256 | > 256 µg/mL | over 256 µg/mL | 91 | 1 | over 256 µg/mL | > 256 | > 256 µg/mL | 60.2 | over 256 µg/mL | > 256 | > 256 µg/mL | > 256 µg/mL | – | –
CC1(C)C(/C=C/C2=C(NCCNC(=O)Nc3ccc(S(N)(=O)=O)cc3)C(=C/C=C3\N(CCCCS(=O)(=O)O)c4ccc5ccccc5c4C3(C)C)/CCC2)=[N+](CCCCS(=O)(=O)[O-])c2ccc3ccccc3c21 [Compound 2d] | significant cytotoxicity | 111 | 81 | 88.7 | 923 | > 256 | > 256 | > 256 µg/mL | over 256 µg/mL | 183 | 1 | over 256 µg/mL | > 256 | > 256 µg/mL | 69.8 | over 256 µg/mL | > 256 | > 256 µg/mL | > 256 µg/mL | – | –
CCCN1C(=CC=C2CCCC(C=CC3=[N+](CCC)c4ccccc4C3(C)C)=C2NCCc2ccc(S(N)(=O)=O)cc2)C(C)(C)c2ccccc21 [Compound 2a] | not cytotoxic | 120 | 89.4 | 60.4 | 410 | 38.5 | 16 to 64 | bactericidal | – | 163 | 1 | – | 8 to 32 | bacteriostatic | 54.8 | – | 4 to 16 | bactericidal | bactericidal | 8 to 128 | fold less toxic than 2e ([6]; MRC-5 IC50 compared with 2e): 19 fold
CN1C(=CC=C2CCCC(C=CC3=[N+](C)c4ccc5ccccc5c4C3(C)C)=C2NCCc2ccc(S(N)(=O)=O)cc2)C(C)(C)c2c1ccc1ccccc21 [Compound 2e] | not cytotoxic | 110 | 77.7 | 71.1 | 861 | 2 | 16 to 64 | bactericidal | – | 160 | – | – | 8 to 32 | bactericidal | 74.1 | – | 1 to 4 | bactericidal | bactericidal | 8 to 128 | –
CCCN1C(=CC=C2CCCC(C=CC3=[N+](CCC)c4ccccc4C3(C)C)=C2NCCNC(=O)Nc2ccc(S(N)(=O)=O)cc2)C(C)(C)c2ccccc21 [Compound 2b] | significant cytotoxicity | 93.5 | 48.1 | 46.9 | 957 | 82.2 | 16 to 64 | bacteriostatic | – | 588 | 2 | – | 8 to 32 | bacteriostatic | 69.4 | – | 4 to 16 | bacteriostatic | bacteriostatic | 8 to 128 | concentration above which cytotoxic to human red blood cells ([1]; hemolysis assay): > 75 µg/mL; selectivity for all assayed bacterial isoforms ([5]; bacterial CA isoforms versus the human off-target hCA I and II): ~10 fold

— publication PMC10254030, “Photoactivatable Heptamethine-Based Carbonic Anhydrase Inhibitors Leading to New Anti-Antibacterial Agents” (International Journal of Molecular Sciences, 2023)
